Experimental data from patent publication US20080318778A1, “Agriculture Composition Method Comprising Nitric Oxide Generating Agent” (University of Sheffield, priority 2004, published 2008).

How the values were obtained:
grapevine cv Sultana = assay: Spraying of dormant grapevine cuttings, onset of bud burst in growth chamber; assay type: in vivo, Vitis vinifera L; settings: H2CN2 2.5% spray
Procedure: Cuttings of grapevine cv Sultana with three dormant buds each were collected from a vineyard located at Antumapu Experimental Station, University of Chile, by the end of May 2003 (Autumn South Hemisphere). After fungicide treatment, they were kept wrapped up with plastic for one week in a dark and cold chamber at 7° C. day/night. […] The number of buds burst was registered every day after the first bud was detected starting to growth. This moment was considered as the initiation of the bud burst.

bean cv. Orfeo INIA = assay: Weekly spraying of field-grown bean plants, effect on yield (pods/plant, seed/plant); assay type: in vivo, Phaseolus vulgaris; settings: sprayed every week for two months until pod setting, NaNO2 at 200 μM, AsA at 100 μM, mixture AsA/NaNO2 at 100 μM/200 μM, control sprayed with water
Procedure: Plants of bean cv Orfeo INIA were grown in rows 80 cm apart and at a density of 10 plants/m, during the 2001 Southern Spring in the Experimental Station of the Univ. of Chile, Santiago. Plants were irrigated twice a week with abundant water in order to avoid water stress at any developmental stage. Phytosanitary, weed and fertilizer conditions of the plant was controlled as recommended for commercial crop.
One month old plants were sprayed every week for a two month period, until pod setting with: NaNO2 at 200 μM; AsA at 100 μM and a mixture of AsA/NaNO2 at […]. Control plants were sprayed with water.

| Structure (SMILES) | strength of effect on bud burst, AsA/NaNO2 compared with cyanamide (grapevine cv Sultana) | yield (Number of pods/plant and Number of seed/plant) (bean cv. Orfeo INIA) |
| --- | --- | --- |
| N#CN [cyanamide] | The effect was not as strong as with cyanamide | – |
| O=C1O[C@H]([C@@H](O)CO)C(O)=C1O [AsA, ascorbic acid] | – | neither AsA or NaNO2 alone had any effect on yield |
| O=NO [NaNO2, sodium nitrite] | – | neither AsA or NaNO2 alone had any effect on yield |
